Measurements from paper PMC4912613, “A broad analysis of resistance development in the malaria parasite” (Nature Communications, 2016).
Read-outs that look alike come from different tables or passages of the source.

Assays:
[1] = tested on: Dd2; assay: Cross-resistance EC50 assay, Dd2 parent; type: cell-based, Plasmodium falciparum; details: for EC50: Plasmodium falciparum, DD2, 72 h
From the text: Multidrug resistance alleles, including mutations in P. falciparum chloroquine resistance transporter (pfcrt) and P. falciparum multi-drug resistance transporter 1 (pfmdr1) are very common in field isolates. Therefore, we sought to assess the degree to which pre-existing resistance alleles would contribute to a loss of potency for this diverse collection of small molecule compounds. Fifteen clones derived from three main parent lines were chosen to maximize diversity in mutated pathways and genetic backgrounds, thus representing the variety of resistance seen in the field: 3D7 (ref. [23]), W2 (ref. [24]) or Dd2 (ref. [25]). The 3D7 line originates from the clone of a Netherlands clinical isolate strain[23][26] and is generally considered to be drug sensitive, though it does convey resistance to sulfadoxine. Conversely, W2 (ref. [24], [27]) and Dd2 (ref. [25]) are multi-drug-resistant lines originating from the Indochina III/CDC isolate, which contain point mutations in pfcrt as well as amplifications in pfmdr1 and GTP cyclohydrolase.
(§1) To evaluate potential overlapping activity against known antimalarial drug targets, we performed dose-response studies with each compound against our assembled set of drug-resistant lines and their corresponding parents, in an asexual blood stage proliferation assay (Table 1). Comparisons were made to the drug-sensitive strain 3D7 when a parent was unavailable (TM90C2A, W2 and Dd2). As laboratories conducted EC50 assays with different strains and protocols, all comparisons were made between assays from the same laboratory and under the same assay conditions. Compounds displaying >5-fold EC50 shifts relative to the parent or sensitive strain were flagged as having potentially non-novel targets. Average fold shifts per strain ranged from 0.82 to 2.34, with a median of 1.23 indicating there was not common resistance to any one resistant clone. No resistance patterns were observed when classifying the compounds based on chemical structure, but this was not surprising given the diversity of compounds chosen. On the other hand, given that these confirmed compounds were derived from larger unconfirmed hit lists to which some filtration criteria may have been applied (for example, elimination of obvious dihydrofolate reductase inhibitors[32]), some[10][11][12][13] pre-existing bias may exist in the set. […]
(§2) Alternatively, a SYBR Green-based proliferation approach was used for the 72-h assay, as previously described. Briefly, a culture of either synchronized or asynchronous parasitized RBCs (0.3% parasitemia and 4% haematocrit) in screening medium (identical to supplemented medium above except no serum was added) was exposed to serial drug dilutions. Plates were incubated at 37 °C and gassed with 93% N2, 4% CO2 and 3% O2 for 72 h. Following incubation, 10 × SYBR Green I (Invitrogen; supplied in 10,000 × concentration) in lysis buffer ([…], 5 mM EDTA, 0.16% Saponin wt per vol and 1.6% Triton X vol per vol) was added to the wells and the plates were incubated overnight at room temperature before plate reading. EC50 assays were repeated three times, taking the average EC50 value from each assay set, and removing any outliers using a single iteration of Grubbs' test, eliminating values with z-scores above the critical z-value (α=0.05). The raw EC50 values for synchronized parasites assayed in a 384-well format are listed in Supplementary Data 4. The raw EC50 values for asynchronous parasites assayed in a 96 or 1536-well format are listed in Supplementary Data 5.
(§3) EC50 values for each strain were compared with those of the corresponding parent strain to determine fold-shift changes and identify resistance. To minimize the cause variance between assays, all comparisons were conducted between strains assayed under identical conditions. A one-way ANOVA followed by a Dunnet's post-test was conducted in GraphPad Prism to identify significant changes between the parent and resistant strain.

[2] = tested on: CYTb-G131S (cytb G131S, parent Dd2); assay: Cross-resistance EC50 assay, CYTb-G131S; type: cell-based, Plasmodium falciparum; details: Plasmodium falciparum, SYBR green 72 hour assay, synchronized parasites, 384-well format
From the text: as §1, §2, §3

[3] = tested on: hsp90 (D88Y, parent Dd2); assay: Cross-resistance EC50 assay, hsp90; type: cell-based; details: Plasmodium falciparum, SYBR green 72 hour assay, synchronized parasites, 384-well format
From the text: as §1, §2, §3

[4] = tested on: ATQ-R5 (cytb F267V, parent 3D7); assay: Cross-resistance EC50 assay, ATQ-R5; type: cell-based, Plasmodium falciparum; details: Plasmodium falciparum, 3D7; SYBR green 72 hour assay; asynchronized parasites; 96-well or 1536-well format; ATQ-R5
From the text: as §1, §2, §3

[5] = tested on: ATQ-R4 (cytb M133I and L144S, parent 3D7); assay: Cross-resistance EC50 assay, ATQ-R4; type: cell-based, Plasmodium falciparum; details: Plasmodium falciparum, 3D7; SYBR green 72 hour assay; asynchronized parasites; 96-well or 1536-well format; ATQ-R4
From the text: as §1, §2, §3

[6] = tested on: Stage 5 gametocytes from P. falciparum NF54; assay: Late-stage (stage V) gametocyte survival assay, MitoTracker; type: cell-based, Plasmodium falciparum; details: for EC50: Plasmodium falciparum, P. falciparum NF54, 72 h, read-out: Stage 5 Gametocyte EC50; for EC50 fold shift compared to asexual stage: Stage 5 Gametocyte EC50: gametocyte EC50 / 3D7 EC50
Description: The second assay was a late-stage (stage V) gametocyte survival assay, which predicts transmission-blocking activity. […] Positive and negative control compounds included puromycin (0.61±0.11 μM) and atovaquone (> 12.50 μM), respectively.
To test sexual-stage activity, compounds were tested against late-stage gametocytes using a MitoTracker fluorescent-based assay. Specifically, synchronized stage V gametocytes were incubated with compound for 72 h. MitoTracker Red CMXRos (Life Technologies) was added to each well (final concentration: 500 nM) together with saponin to lyse the RBCs. Each plate was then imaged with an Operetta High Content Imaging System (Perkin Elmer) for fluorescence (590–640 nm). Varying levels of compound concentration were used (1.25 μM or 12.5 μM) due to the stock concentration supplied.
The gametocytocidal activity was measured using high-content image analysis software (Harmony, Perkin Elmer). The readout was based on number of metabolically active gametocytes per well.

[7] = tested on: P. berghei exoerythrocytic forms; assay: Liver-stage P. berghei hepatocyte invasion and development assay (luminescence, HepG2); type: cell-based, Plasmodium berghei; details: for EC50: Plasmodium berghei, HepG2, 48 h, P. berghei sporozoites, read-out: Liver Stage EC50; for EC50 fold shift compared to asexual stage: Liver Stage EC50: liver stage EC50 / 3D7 EC50
From the text: (§4) As drugs that eliminate multiple stages of the parasite lifecycle will be critical components in global efforts to eliminate malaria, we were interested in knowing whether the compounds in our study had additional activities against either the liver and/or transmission stages of the parasite lifecycle. To determine this, we first evaluated the compounds in additional phenotypic assays. The first assay was a P. berghei hepatocyte invasion and development assay, which predicts causal prophylactic activity. Hepatocyte toxicity was additionally tested to identify false-positive activity in the liver stage due to host-cell toxicity. Assays were executed in duplicate using a 12-point EC50 curve at starting concentrations of 5 μM or 50 μM (Supplementary Table 1).
(§5) Liver-stage activity was determined by pretreating hepatic human cells (HepG2) for 2 h with compound in 1,536-well plates infected with freshly dissected P. berghei sporozoites. After 48 h of incubation, the viability of P. berghei exoerythrocytic forms was measured by luminescence reaction light output using BrightGlo (Promega). Varying levels of compound concentration were used (5 μM or 50 μM) due to the stock concentration supplied.

[8] = tested on: HepG2; assay: Hepatocyte toxicity; type: cell-based, human; details: for Hepatocyte Toxicity: HepG2; for Liver Stage / Hepatocyte Toxicity: toxicity fold shift for the liver stage (hepatocyte toxicity vs liver stage EC50); for EC50 fold shift compared to asexual stage: Hepatocyte Toxicity: hepatocyte toxicity / 3D7 EC50
From the text: as §4, §5

[9] = read-out: Dd2 (PARENT) Average EC50
[10] = read-out: Dd2 (PARENT) EC50 (µM) Average EC50

SMILES | EC50 [1, 9] [µM] | EC50 [1, 10] [µM] | EC50 ([2]; DD2, CYTb:G131S strain) [nM] | EC50 ([3]; DD2, HSP90 strain) [nM] | EC50 [4] [µM] | EC50 [5] [µM] | EC50 ([2]; strain CYTb:G131S (Dd2 parent)) [nM] | EC50 [6] [nM] | EC50 [7] [nM] | Hepatocyte Toxicity [8] [µM] | Liver Stage / Hepatocyte Toxicity [8] | EC50 ([3]; strain HSP90 (Dd2 parent)) [nM] | EC50 fold shift compared to asexual stage: Stage 5 Gametocyte EC50 [6] | EC50 fold shift compared to asexual stage: Liver Stage EC50 [7] | EC50 fold shift compared to asexual stage: Hepatocyte Toxicity [8] | EC50 fold-shift, Dd2 compared with 3D7 ([1]; loss of efficacy) [×]
COc1ccc2c3c([nH]c2c1)[C@H](CO)N(C(C)=O)CC31CCN(C(=O)Nc2ccccc2F)CC1 [MMV673482] | 0.07 | 0.005 | 182 | 94 | 0.025 | 0.027 |  |  |  |  |  |  |  |  |  | 
CN(C)Cc1ccc(-c2cc3c(-c4ccc(CN(C)C)cc4)ccnc3[nH]2)cc1.O=C(O)C(F)(F)F [MMV022224] | 0.41 | 0.302 |  |  | 0.358 | 0.372 | 343 | 2330 | 801 | 2.32 | 2.90 | 346 |  |  |  | 
COc1cc(C(=O)ON=C(N)Cc2cccc3ccccc23)cc(OC)c1OC [MMV666687] | 0.314 | 0.87 |  |  | 0.914 | 0.784 | 492 | 4340 | 21000 | 31.52 | 1.50 | 283 |  |  |  | 
O=C(Nc1ccc(Cl)c(Cl)c1)Nc1ccc(Cl)c(Cl)c1 [MMV665852] | 0.894 | 1.8 |  |  | 2.71 | 2.89 | 1120 | > 1250 | 343 | 2.594 | 7.56 | 893 |  |  |  | 
Nc1ccc(-c2nc3cc(Oc4ccc(Oc5ccc6[nH]c(-c7ccc(N)cc7)nc6c5)cc4)ccc3[nH]2)cc1 [MMV011895] | 0.259 | 0.431 |  |  | 0.525 | 0.545 | 328 | > 12500 | > 50000 | > 50 |  | 311 | > 78 | > 300 | > 300 | 
CC(C)c1cccc(C(NC(=O)C2Cc3ccccc3CN2C(=O)c2cccc(N3CCOCC3)c2)C2CCCC2)c1 (stereo not drawn) [MMV028038] | 0.299 | 0.622 |  |  | 0.839 | 1.01 | 461 | 1180 | 5360 | 19.24 | 3.59 | 432 | 2.19 | 9.92 | 35.63 | 
FC(F)(F)c1cccc(Nc2nc3ccccc3nc2Nc2cccc(C(F)(F)F)c2)c1 [MMV665794] | 0.113 | 0.199 |  |  | 0.381 | 0.434 | 172 | 836 | 375 | 1.374 | 3.67 | 140 |  |  |  | 
c1cc(-c2cnc3ccc(-c4ccc(N5CCOCC5)cc4)nn23)ccn1 [MMV668311] | 0.056 | 0.039 |  |  | 0.029 | 0.029 | 63 | 879 | 2250 | 5.119 | 2.27 |  | 18.31 | 46.90 | 106.65 | 
CCN(CC)CCn1c(=N)n(CC(O)c2ccc(Cl)c(Cl)c2)c2ccccc21.Cl (stereo not drawn) [MMV000248] | 0.424 | 0.413 |  |  | 0.191 | 0.177 | 367 | 1600 | 5550 | 20.64 | 3.72 | 328 | 5.23 | 18.14 | 67.45 | 
COc1ccc(NC(=O)N2CCCCN3[C@H](CN)[C@H](c4ccc(C#Cc5ccccc5)cc4)[C@@H]3C2)cc1 [BRD1095] | 0.013 | 0.00257 | 24 | 17 | 0.002 | 0.003 |  | 259 | 82.6 | > 50 | > 605 |  | 6.48 | 2.07 | > 1250 | 
Cc1cc(Nc2ccc(OCc3ccccc3)cc2)nc2cc(O)ccc12 [MMV007181] | 0.186 | 0.19 |  |  | 0.088 | 0.109 | 245 | 805 | 4790 | 7.952 | 1.66 | 120 | 2.33 | 13.83 | 22.98 | 
CN(C)CCCN(C)C(=O)C1Cc2cc(-c3ccccc3)ccc2N1S(=O)(=O)c1ccccc1 (stereo not drawn) [MMV028895] | 0.349 | 6.01 |  |  | 0.879 | 1.07 | 390 |  |  |  |  | 332 |  |  |  | 7.1
